In ChEMBL document CHEMBL5042519, “Design and synthesis of marine sesterterpene analogues as novel estrogen receptor α degraders for breast cancer treatment” (Eur J Med Chem, 2022):
Structures can show the parent of a compound that is named as a salt. Calls of active or inactive are those of the source. The rule behind the calls is not given here.

Assays:
[1] = Resistance index, ratio of IC50 for antiproliferative activity against human MCF7/ADR cells to IC50 for antiproliferative activity against human MCF7 cells; type: functional
MCF7 [2] = test: Antiproliferative activity against human MCF7 cells assessed as reduction in cell viability after 48 hrs by MTT assay; type: functional, cell-based; details: MCF7, 48 h
[3] = Selectivity index, ratio of IC50 for antiproliferative activity against human MCF-10A cells to IC50 for antiproliferative activity against human MDA-MB-231 cells by MTT assay; type: toxicity, cell-based; details: MCF-10A cells versus MDA-MB-231 cells, read-out: Ratio IC50
MDA-MB-231 = test: Antiproliferative activity against human MDA-MB-231 cells assessed as reduction in cell viability after 48 hrs by MTT assay; details: MDA-MB-231, 48 h
[4] = Antiproliferative activity against human MCF-10A cells assessed as reduction in cell viability after 48 hrs by MTT assay; type: toxicity, cell-based
[5] = biological target: T1, Estrogen receptor (Homo sapiens) (UniProt P03372); test: Induction of ERalpha degradation in human MCF7 cells assessed as decrease in ERalpha protein expression at 1 uM incubated for 24 hrs by Western blot analysis; type: cell-based
T1 sequence (whole entry): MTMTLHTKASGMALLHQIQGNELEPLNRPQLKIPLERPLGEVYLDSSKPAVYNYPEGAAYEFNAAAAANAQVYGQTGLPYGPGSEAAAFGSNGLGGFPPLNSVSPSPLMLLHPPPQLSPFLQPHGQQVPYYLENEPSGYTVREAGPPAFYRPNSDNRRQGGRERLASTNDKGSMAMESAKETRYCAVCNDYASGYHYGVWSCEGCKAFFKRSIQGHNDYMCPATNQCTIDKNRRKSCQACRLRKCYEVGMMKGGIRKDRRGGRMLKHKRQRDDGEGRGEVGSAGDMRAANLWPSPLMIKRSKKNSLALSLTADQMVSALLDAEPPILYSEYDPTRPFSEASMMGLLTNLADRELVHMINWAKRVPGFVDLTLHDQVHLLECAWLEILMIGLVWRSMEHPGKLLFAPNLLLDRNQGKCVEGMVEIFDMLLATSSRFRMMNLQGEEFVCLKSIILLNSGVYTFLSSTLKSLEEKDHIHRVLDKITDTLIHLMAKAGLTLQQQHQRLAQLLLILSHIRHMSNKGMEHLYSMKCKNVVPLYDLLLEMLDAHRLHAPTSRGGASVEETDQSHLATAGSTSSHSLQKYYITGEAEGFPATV

MCF7 [6] = test: Antiproliferative activity against human MCF7/ADR cells assessed as reduction in cell viability after 48 hrs by MTT assay; type: functional, cell-based; details: MCF7, 48 h

Structure (SMILES)	Ratio IC50 [1]	IC50 (MCF7 [2]) [µM]	selectivity ratio [3]	IC50 (MDA-MB-231) [µM]	IC50 at 48 h [4] [µM]	Activity [5]	IC50 (MCF7 [6]) [µM]
CCCCCCOC(=O)/C=C\C=C/[C@H](C)[C@H]1CC[C@]2(C)C[C@@H]3C(C)=CC(=O)[C@H]3/C(C=O)=C\C[C@@H]12	0.76	1.04	1.52	0.64	1.58	Active	0.79
CCCCCOC(=O)/C=C/[C@H](C)[C@H]1CC[C@]2(C)C[C@@H]3C(C)=CC(=O)[C@H]3/C(C=O)=C\C[C@@H]12	0.67	2.95		2.41			1.98
CC1=CC(=O)[C@H]2/C(C=O)=C\C[C@H]3[C@@H]([C@@H](C)/C=C\C=C/C(=O)OCCOCCOCCOCCOC(=O)CC45CC6CC(CC(C6)C4)C5)CC[C@]3(C)C[C@H]12	1.61	1.26		1.01		Active	2.03
CCCCCCCCOC(=O)/C=C\C=C/[C@H](C)[C@H]1CC[C@]2(C)C[C@@H]3C(C)=CC(=O)[C@H]3/C(C=O)=C\C[C@@H]12	0.55	1.78		0.52			0.98
CC1=CC(=O)[C@H]2/C(C=O)=C\C[C@H]3[C@@H]([C@@H](C)/C=C/C(=O)OCCOCCOCCOC(=O)CC45CC6CC(CC(C6)C4)C5)CC[C@]3(C)C[C@H]12	1.11	1.04		0.73		Active	1.15
CCCCCCCCCCOC(=O)/C=C\C=C/[C@H](C)[C@H]1CC[C@]2(C)C[C@@H]3C(C)=CC(=O)[C@H]3/C(C=O)=C\C[C@@H]12	0.68	1.85		0.91			1.26
COCCOCCOCCOC(=O)/C=C/[C@H](C)[C@H]1CC[C@]2(C)C[C@@H]3C(C)=CC(=O)[C@H]3/C(C=O)=C\C[C@@H]12	0.6	3.79		3.16			2.26
CC1=CC(=O)[C@H]2/C(C=O)=C\C[C@H]3[C@@H]([C@@H](C)/C=C\C=C/C(=O)OCCOCCOOC(=O)CC45CC6CC(CC(C6)C4)C5)CC[C@]3(C)C[C@H]12		> 10		> 10			> 10
CCCCOC(=O)/C=C/[C@H](C)[C@H]1CC[C@]2(C)C[C@@H]3C(C)=CC(=O)[C@H]3/C(C=O)=C\C[C@@H]12	0.75	2.25		1.47			1.69
CCCCCCOC(=O)/C=C/[C@H](C)[C@H]1CC[C@]2(C)C[C@@H]3C(C)=CC(=O)[C@H]3/C(C=O)=C\C[C@@H]12	0.89	1.84		0.86			1.63
CC1=CC(=O)[C@H]2/C(C=O)=C\C[C@H]3[C@@H]([C@@H](C)/C=C\C=C/C(=O)OCCOCCOC(=O)CC45CC6CC(CC(C6)C4)C5)CC[C@]3(C)C[C@H]12	1.26	0.69	3.48	0.54	2.4	Active	0.87
CC1=CC(=O)[C@H]2/C(C=O)=C\C[C@H]3[C@@H]([C@@H](C)/C=C\C=C/C(=O)OC45CC6CC(CC(C6)C4)C5)CC[C@]3(C)C[C@H]12	0.96	1.08		1.08		Active	1.04
CCCCCCCCCOC(=O)/C=C\C=C/[C@H](C)[C@H]1CC[C@]2(C)C[C@@H]3C(C)=CC(=O)[C@H]3/C(C=O)=C\C[C@@H]12	0.44	2.53	1.91	0.77	4.83		1.12
CC1=CC(=O)[C@H]2/C(C=O)=C\C[C@H]3[C@@H]([C@@H](C)/C=C/C(=O)OCCOCCOC(=O)CC45CC6CC(CC(C6)C4)C5)CC[C@]3(C)C[C@H]12	1.07	1.04		0.77			1.11
CCCCCCCCCOC(=O)/C=C/[C@H](C)[C@H]1CC[C@]2(C)C[C@@H]3C(C)=CC(=O)[C@H]3/C(C=O)=C\C[C@@H]12	0.4	1.81		0.57			0.73
CCCCOC(=O)/C=C\C=C/[C@H](C)[C@H]1CC[C@]2(C)C[C@@H]3C(C)=CC(=O)[C@H]3/C(C=O)=C\C[C@@H]12	1.28	1.45		1.37			1.86
CC1=CC(=O)[C@H]2/C(C=O)=C\C[C@H]3[C@@H]([C@@H](C)/C=C\C=C/C(=O)OCCCCCCCCOC(=O)CC45CC6CC(CC(C6)C4)C5)CC[C@]3(C)C[C@H]12	0.85	1.76		0.69			1.49
CC1=CC(=O)[C@H]2/C(C=O)=C\C[C@H]3[C@@H]([C@@H](C)/C=C/C(=O)OC45CC6CC(CC(C6)C4)C5)CC[C@]3(C)C[C@H]12	1.03	0.59		0.95		Active	0.61
CCCCCCCOC(=O)/C=C\C=C/[C@H](C)[C@H]1CC[C@]2(C)C[C@@H]3C(C)=CC(=O)[C@H]3/C(C=O)=C\C[C@@H]12	0.68	1.38		0.69		Active	0.94
COCCOCCOCCOC(=O)/C=C\C=C/[C@H](C)[C@H]1CC[C@]2(C)C[C@@H]3C(C)=CC(=O)[C@H]3/C(C=O)=C\C[C@@H]12	0.67	4.85		2.32			3.26
COc1cccc2c1C(=O)c1c(O)c3c(c(O)c1C2=O)C[C@@](O)(C(=O)CO)C[C@@H]3O[C@H]1C[C@H](N)[C@H](O)[C@H](C)O1 [DOXORUBICIN HYDROCHLORIDE]					0.86		
CC1=CC(=O)[C@H]2/C(C=O)=C\C[C@H]3[C@@H]([C@@H](C)/C=C\C=C/C(=O)OCCCOC(=O)CC45CC6CC(CC(C6)C4)C5)CC[C@]3(C)C[C@H]12	0.66	1.45		0.44			0.96
CCCCCCCOC(=O)/C=C/[C@H](C)[C@H]1CC[C@]2(C)C[C@@H]3C(C)=CC(=O)[C@H]3/C(C=O)=C\C[C@@H]12	0.58	2.19		0.97			1.28
CCCCCOC(=O)/C=C\C=C/[C@H](C)[C@H]1CC[C@]2(C)C[C@@H]3C(C)=CC(=O)[C@H]3/C(C=O)=C\C[C@@H]12	0.74	1.84		1.66			1.37
CC1=CC(=O)[C@H]2/C(C=O)=C\C[C@H]3[C@@H]([C@@H](C)/C=C/C(=O)OCCOCCOCCOCCOC(=O)CC45CC6CC(CC(C6)C4)C5)CC[C@]3(C)C[C@H]12	0.9	0.96		0.93		Active	0.86
CCCCCCCCCCOC(=O)/C=C/[C@H](C)[C@H]1CC[C@]2(C)C[C@@H]3C(C)=CC(=O)[C@H]3/C(C=O)=C\C[C@@H]12	0.62	1.66	1.3	0.3	2.16		1.03
CC1=CC(=O)[C@H]2/C(C=O)=C\C[C@H]3[C@@H]([C@@H](C)/C=C/C(=O)OCCCOC(=O)CC45CC6CC(CC(C6)C4)C5)CC[C@]3(C)C[C@H]12	0.38	1.82		0.29			0.7
CC1=CC(=O)[C@H]2/C(C=O)=C\C[C@H]3[C@@H]([C@@H](C)/C=C/C(=O)OCCCCCCCCOC(=O)CC45CC6CC(CC(C6)C4)C5)CC[C@]3(C)C[C@H]12	0.67	2.87		0.75			1.91
CCCCCCCCOC(=O)/C=C/[C@H](C)[C@H]1CC[C@]2(C)C[C@@H]3C(C)=CC(=O)[C@H]3/C(C=O)=C\C[C@@H]12	0.37	1.42	1.11	0.42	1.57		0.52
